“Also recorded” adds a separate entry of the source.
B1: IL 12: IL-12 added to T cell cultures with anti-CD3/CD28 beads (protein, UniProt P29459 23-219; P29460 23-328, looked up)
Interleukin-12 subunit alpha: RNLPVATPDPGMFPCLHHSQNLLRAVSNMLQKARQTLEFYPCTSEEIDHEDITKDKTSTVEACLPLELTKNESCLNSRETSFITNGSCLASRKTSFMMALCLSSIYEDLKMYQVEFKTMNAKLLMDPKRQIFLDQNMLAVIDELMQALNFNSETVPQKSSLEEPDFYKTKIKLCILLHAFRIRAVTIDRVMSYLNAS
Interleukin-12 subunit beta: IWELKKDVYVVELDWYPDAPGEMVVLTCDTPEEDGITWTLDQSSEVLGSGKTLTIQVKEFGDAGQYTCHKGGEVLSHSLLLLHKKEDGIWSTDILKDQKEPKNKTFLRCEAKNYSGRFTCWWLTTISTDLTFSVKSSRGSSDPQGVTCGAATLSAERVRGDNKEYEYSVECQEDSACPAAEESLPIEVMVDAVHKLKYENYTSSFFIRDIIKPDPPKNLQLKPLKNSRQVEVSWEYPDTWSTPHSYFSLTFCVQVQGKSKREKKDRVFTDKTSATVICRKNASISVRAQDRYYSSSWSEWASVPCS
B2: mast cell chymase: an enzyme that degrades endogenous VIP; human CMA1 (protein, UniProt P23946 22-247, looked up)
Chymase: IIGGTECKPHSRPYMAYLEIVTSNGPSKFCGGFLIRRNFVLTAAHCAGRSITVTLGAHNITEEEDTWQKLEVIKQFRHPKYNTSTLHHDIMLLKLKEKASLTLAVGTLPFPSQFNFVPPGRMCRVAGWGRTGVLKPGSDTLQEVKLRLMDPQACSHFRDFDHNLQLCVGNPRKTKSAFKGDSGGPLLCAGVAQGIVSYGRSDAKPPAVFTRISHYRPWINQILQAN

Tests used:
[1] = cited from earlier work
[2] = tested on: luciferase B6 splenic T cells; assay: One-way mixed lymphocyte reaction (MLR), T-cell proliferation stimulated by alloantigen; type: cell-based, mouse; settings: for T-cell proliferation in MLR: luciferase B6 splenic T cells, 3 days with irradiated FVB splenocytes, daily addition, 0-10 mmol/L
Method: Proliferation of luciferase B6 splenic T cells cultured for 3 days in MLR with irradiated FVB splenocytes, with daily addition of VIP and/or VIPhyb to achieve the concentrations shown (0-10 mmol/L).
To explore the role of VIP signaling in allo-immune responses, one-way mixed lymphocyte reactions (MLR) were performed containing VIP and/or the antagonistic VIPhyb peptide.

E.G7-OVA cells = assay: OVA-expressing lymphoma model: adoptive transfer of T cells expanded with the compounds; type: in vivo, mouse; settings: OT-I, OT-II and B6 T cells expanded 3 days with compound, injected intravenously on day 7 of tumor growth
Method: Mice were injected subcutaneously with 5×10^5 E.G7-OVA cells which were allowed to grow for 7 days until a palpable tumor formed. During this period, OT-I, OT-II, and B6 T cells were expanded with CD3/CD28 beads in the presence of IL-2 and the indicated compounds for 3 days. On day 7 of tumor growth, mice were injected intravenously with a combination of expanded OT-I, OT-II, and B6 T cells (2×10^6 OT-I, 1×10^6 OT-II, and 2×10^6 B6 cells) or 2×10^6 B6 T cells as a control. Mice were then monitored for tumor growth which was calculated as (L×W2)/2.

[3] = tested on: senescent T cells from a patient with lymphoma; assay: 10 day in vitro expansion of senescent lymphoma patient T cells with anti-CD3/CD28 beads, flow cytometric analysis; type: cell-based, human; settings: for fraction of senescent T cells that lacked both CD27 and CD28: control 55.2%; for numbers of effector memory T cells (Tem): 10-day cultures; for in vitro expansion of senescent T cells: anti CD3/CD28 beads, single agents or in combination
Method: Monocytes were depleted from the T cell sample, as monocytes are known to inhibit T cell expansion in cultures containing anti-CD3/CD28 beads. The effect of a range of idelalisib concentrations were compared alone and in combination with 3 uM VIP peptide antagonist (VIPhyb) or 1 ug/ml mast cell chymase, an enzyme that degrades endogenous VIP on T cell activation, differentiation and proliferation. Numbers of viable T cells were measured during a 10 day in vitro cultures as well as the T cell differentiation and activation profiles, focusing on the relative numbers of T cells with a senescent phenotype in which co-stimulatory receptors CD27 and CD28 are both absent (CD27− CD28−), to an activated phenotype, in which either CD27, CD28, or both co-stimulatory receptors are present (CD27+CD28+).
Aliquots of frozen patient apheresis products or PBMC from ficolled whole blood were rapidly thawed and rested overnight in complete RPMI 1640 supplemented with 10% fetal bovine serum, 100 U/mL penicillin, 100 μg/mL streptomycin, and 50 μM 2-mercaptoethanol (complete media). The following day, red blood cells were removed from apheresis products by ficoll gradient. The leukocytes were then enriched for T cells using an EasySep human T cell enrichment kit according to manufacturer's instructions. Cells were plated in 200 μL of complete media in each well of a 96 well flat-bottom plate. Compounds were added at the indicated concentrations, and the DMSO concentration was normalized to 0.1% for all wells. Anti-CD3/CD28 beads were added at a 1:1 bead:cell ratio. On day 7 post-stimulation, cells from each treatment were transferred to new media. Fresh compounds and beads were then added, and the cells were cultured for an additional 3 days. On day 10 post-initial stimulation, the beads were removed, and the cells were stained for flow cytometric analysis.
Cells were washed twice in PBS. The cells were also stained using a fixable viability dye. Surface markers were then stained by adding fluorochrome-conjugated antibodies to CD3, CD4, CD8, CD27, CD28, CD45RA, CD45RO, PD-1, and CCR7. To assess proliferation, half the cells were evaluated for expression of Ki67. Ki67 staining was performed using a FoxP3 intracellular staining kit. Just prior to running samples, Accucheck counting beads were added to each tube. Samples were acquired on a BD FACS Aria, and analysis was performed using FlowJo software. Viable cells were used in the analysis. The absolute numbers of cells was calculated for each population according to instructions provided by the manufacturer of the Accucheck counting beads.

[4] = tested on: T-cells from the patient with relapsed lymphoma; assay: Sorted T cells of a relapsed lymphoma patient cultured with anti-CD3/anti-CD28 beads (Ki67, PD-1 flow cytometry); type: cell-based, human; settings: for T-cell proliferation in subsets lacking CD27 or CD28: sorted subsets, anti-CD3/CD28 beads
Text: Using high-speed cell sorting subsets of T-cells were isolated defined by their levels of CD27 and CD28 expression from the patient with relapsed lymphoma and a healthy control. CD3 positive T-cells with each of the four phenotypes defined by CD27 and CD28 expression were sorted and cultured in vitro in the presence of anti-CD3/anti-CD28 beads. While total T-cells from healthy donors had 100% expression of the Ki67 proliferation marker following four days of culture, the corresponding total T-cell population from the patient with anergic T-cells following treatment for lymphoma had only 90% of T-cells expressing the Ki67 marker.
Following the daily addition of 3 uM VIPhyb to these cultures, the proportion of Ki67 positive T-cells from the anergic lymphoma patient was increased to 100%. […] In contrast, the T-cell subsets lacking expression of either CD27 or CD28 or both markers had impaired proliferated response when incubated with the anti-CD3/CD28 beads.

DLBCL patient T cells = assay: DLBCL patient T cell expansion for 14 days with CD3/CD28 beads and IL-2; type: cell-based, human
[5] = tested on: Bcl-2 in lymphoma patient T cells; assay: Bcl-2 expression in patient T cell expansion cultures (SDS-PAGE, membrane probing); type: cell-based, human; settings: lysates on days 7 and 14, actin loading control
Method: Protein lysates from patient T cell expansion cultures were prepared on days 7 and 14. Samples were run on an SDS-PAGE gel prior to transfer to a nitrocellulose membrane. The membrane was then probed for the pro-survival Bcl-2 protein, stripped, and then re-probed for actin as a loading control.

[6] = cited from earlier work; remark: listed apart in the source
[7] = inclusion during T cell activation

Row | Molecule | T-cell proliferation in MLR [2] | therapeutic efficacy of expanded mouse T cells (tumor growth) (E.G7-OVA cells) | numbers of effector memory T cells (Tem) [3] | in vitro expansion of senescent T cells [3] | T-cell proliferation in subsets lacking CD27 or CD28 [4] | frequency of CD27+CD28+ cells (DLBCL patient T cells) | frequency of CD27-CD28- cells (DLBCL patient T cells) | expression of Bcl-2 [5] | further results
1 | VIP: (SEQ ID NO: 12) HSDAVFTDNYTRLRKQMAVKKYLNSILN, endogenous polypeptide | decreased Luciferase T-cell proliferation in a dose-dependent manner | – | – | – | – | – | – | – | half-life in vivo [1]: less than two
2 | VIPhyb: VIP receptor antagonist, hybrid peptide of neurotensin and VIP, (SEQ ID NO: 1) KPRRPYTDNYTRLRKQMAVKKYLNSILN | augmented in vitro T-cell proliferation; also recorded: augmented T cell proliferation in vitro; also recorded: increased T-cell proliferation | enhances their therapeutic efficacy | increased | significantly expanded | augmented T-cell proliferation | increases | decreasing | increased | fraction of senescent T cells that lacked both CD27 and CD28 ([3]; 3 uM VIPhyb): 35.7%; PD-1 expression ([4]; 3 uM VIPhyb, compared with control cultures without VIP antagonist): decreased levels of PD-1 expression; proportion of Ki67 positive T-cells ([4]; daily addition of 3 uM VIPhyb, total T-cells of anergic lymphoma patient, anti-CD3/anti-CD28 beads, 90% without VIPhyb): 100%; effect on the suppression of T-cell proliferation by VIP ([2]; MLR with VIP and VIPhyb): mitigated the inhibitory effect of the native VIP peptide on T-cell proliferation; also recorded: reversed the suppressive effect of VIP in MLR
3 | CC[C@H](Nc1ncnc2[nH]cnc12)c1nc2cccc(F)c2c(=O)n1-c1ccccc1 [idelalisib, (S)-2-(1-(9H-purin-6-ylamino)propyl)-5-fluoro-3-phenylquinazolin-4(3H)-one] | – | enhances their therapeutic efficacy | increased | significantly expanded | – | increases | decreasing | increased | adverse signs and symptoms in treated patients ([6]; human, in vivo): auto immune-like signs and symptoms including colitis and rash; anti-cancer responses after drug treatment has stopped ([6]; human, in vivo): continued anti-cancer responses; T-cell activation in patients with CLL ([6]; idelalisib treatment): increased T-cell activation; fraction of senescent T cells that lacked both CD27 and CD28 ([3]; 10 nM idelalisib): 16.1%; proportion of T cells co-expressing CD27 and CD28 ([3]; idelalisib 1 uM or 100 nM, compared to control cultures with no added drug): significantly increased; number of viable T cells obtained (DLBCL patient T cells; [7]): increases; proportion of naive and central memory cells (DLBCL patient T cells; [7]): increases
4 | B1 | – | – | – | – | significant impact in increasing the proliferation fraction of T-cells that were CD28 negative but not those that were CD27 negative | – | – | – | –
5 | B2 | – | – | – | significantly expanded | – | – | – | – | fraction of senescent T cells that lacked both CD27 and CD28 ([3]; 1 μg per ml mast cell chymase): 37.4%

Reference: patent publication US11859208B2, “Methods of treating cancer using cell based therapies” (Emory University, priority 2016, dated 2024)
